From patent publication US12594261B2, “Use of heterocyclic derivatives with cardiomyocyte proliferation activity for treatment of heart diseases” (SHANGHAI EAST HOSPITAL (EAST HOSPITAL, TONGJI UNIVERSITY …, priority 2019, dated 2026) come the findings set out here.

Usually IC50 stands for the concentration that gives 50% inhibition.

Entries after “also recorded” stand apart in the source; their conditions may differ. Like-named read-outs stand apart in the source and are kept apart here.

The test system of assay [1] is neonatal rat ventricular myocytes (NRVMs). Nature of the assay: Myocyte proliferation assay (EdU) in neonatal rat ventricular myocytes. It counts as cell-based. Particulars: for activation at 1 µM / activation at 3 µM / activation at 10 µM: Rattus norvegicus, Ventricular myocyte, growth relative to blank myocyte growth without compound added; for activation at 1 µM: 1 uM compound; for activation at 3 µM: 3 uM compound; for activation at 10 µM: 10 uM compound. The protocol:
1. Isolation of and Culture Neonatal Rat Ventricular Myocytes (NRVMs)
Ventricles from neonatal rats were separated from the atria, cut into small pieces (about 2×2 mm^2) and then dissociated in Ca^2+-free HBSS containing 0.125 mg ml-1 trypsin (Gibco), 10 μg ml-1 DNase II (Sigma) and 0.1 mg ml-1 collagenase type IV (Sigma). The digestion was carried out under constant stirring at 37° C. for 5 min. The supernatant was collected with FBS (Gibco) after each digestion period. After digestion, the collected supernatant was centrifuged at 1000 g for 10 min at room temperature, and then cell pellets were resuspended in DMEM (Gibco) supplemented with 10% FBS and with 100 uM 5-bromo-2′-deoxyuridine (Sigma). The resuspended cells were passed through a cell strainer ([…], BD Falcon) and seeded onto 100-mm plastic dishes for 2 h at 37° C. in a 5% CO2 to remove fibroblasts, the supernatant was then collected and plated onto 1% gelatin (Sigma)-coated dishes. 24 h after the seeding, the medium was changed to DMEM (Gibco) containing 2% FBS (Gibco), 1% insulin-transferrin-selenium (ITS; Gibco), 1% Penicillin-Streptomycin (Gibco). After 24 hours of low serum culture, remove the medium with DMEM (Gibco) containing 6% FBS (Gibco), 1% insulin-transferrin-selenium (ITS; Gibco), 1% Penicillin-Streptomycin (Gibco), different concentrations of compounds (the compounds were pre-diluted in the medium and the drug concentration was 10 uM, 3 uM, 1 uM, fully mixed). After 36 h add Edu substrate (Invitrogen) according to the manufacturer's guidelines, and then after 12 h cell can be used.
2.1. Immobilization: Remove the medium and fix the cells with […] in 200 ul (whichever is covered) for 15 min and wash the cells twice with 500 ul of PBS for 5 min each time.
2.2. Broken membrane: Add 200 ul of 0.3% Triton-X 100 (diluted in PBS) to each well, incubate for 10-15 min at room temperature (the time should not be too long), and wash the cells twice with 500 ul of PBS for 5 min each time.
2.3. Blocking: Add 200 ul of 10% normal goat serum (diluted with 0.1% PBST) to each well, incubate for 1 h at room temperature, and wash twice with 500 ul of 0.1% PBST for 5 min each time.
2.4. Primary antibody: dilute the primary antibody (abcam, ab8295) to blocking solution at a ratio of 1:200, add 100 ul per well, incubate for 1 h at room temperature (may be slightly longer than 2-3 h), wash the cells twice with 500 ul 0.1% PBST for 5 min each time.
2.5. Secondary antibody: Dilute the fluorescently labeled secondary antibody (abcam, ab150117) into blocking solution at a ratio of 1:200, add 100 ul per well, incubate for 1 h at room temperature (the time should not be too long), wash the cells twice with 0.1% PBST for 5 min each time, pay attention to the whole process. Protected from light.
2.6. Edu staining (Invitrogen C10338)
2.6.1 Prepare Click-iT® reaction cocktail according to Table 3. It was important to add the ingredients in the order listed in the table; otherwise, the reaction would not proceed optimally. Use the Click-iT® reaction cocktail within 15 minutes of preparation.
2.6.2 Add 0.1 mL of Click-iT® reaction cocktail to each well containing a coverslip. Rock the plate briefly to ensure that the reaction cocktail is distributed evenly over the coverslip.
2.6.3 Incubate the plate for 30 minutes at room temperature, protected from light.
2.6.4 Remove the reaction cocktail, then wash the cells twice with 0.1% PBST for 5 min each time.
2.7. DAPI staining: DAPI stain was diluted to PBS at a ratio of 1:1000, 100 ul per well, incubated for 30 min at room temperature, and the cells were washed twice with PBS for 5 min each.
We used Molecular Devices' Image Xpress Micro Confocal for high-throughput photo and data analysis.

The next assay has as its target T1, human GSK3 beta (Homo sapiens, UniProt P49841).
T1 construct: Recombinant full-length human GSK3 beta (expressed in Sf9 insect cells with an N-terminal His tag); His tag (N); purchased SignalChem G09-10H; host or cells: Sf9 insect cells
Nature of the assay: GSK3 beta enzyme assay (ADP-Glo). It counts as biochemical. The protocol:
1. GSK3 Beta Enzyme Assay
The ability of compounds to inhibit human GSK3 beta kinase activities was determined using a commercially available ADP-Glo™ Kinase Assay kit (Promega, Cat #V9102) according to the manufacturer's protocol. The ADP-Glo™ Kinase Assay is a luminescent ADP detection assay that provides a universal, homogeneous, high-throughput screening method to measure kinase activity by quantifying the amount of ADP produced during a kinase reaction. The ADP-Glo™ Kinase Assay can be used to monitor the activity of virtually any ADP-generating enzymes (e.g., kinases or ATPases).
Recombinant full-length human GSK3 beta (expressed in Sf9 insect cells with an N-terminal His tag) was purchased from SignalChem (SignalChem, Cat #G09-10H). The GSK3 substrate peptide (sequence: […](pS)EDEEE) was purchased from SignalChem (SignalChem, Cat #G50-58). This assay, run in a 384-well plate format, is a generic method for measuring kinase activities using an ADP-Glo Kinase Assay Kit. The basic assay procedure involves two steps: (1) Enzymatic step: inhibitors are incubated with the kinase and then ATP (included in the ADP-Glo Kinase Assay Kit) and the GSK3 substrate peptide are added to start the enzymatic reaction; (2) Detection step: after the kinase reaction, first ADP-Glo™ Reagent is added to terminate the kinase reaction and deplete the remaining ATP. Second, the Kinase Detection Reagent is added to simultaneously convert ADP to ATP and allow the newly synthesized ATP to be measured using a luciferase/luciferin reaction. The light generated is measured using a luminometer.
Briefly, GSK3 beta (4 nM) in the enzymatic buffer solutions (40 mM Tris, 7.5, 20 mM MgCl2, 0.1 mg/ml BSA, 50 μM DTT) were mixed with various concentrations of inhibitors (dissolved in 100% DMSO). These solutions were incubated for 30 minutes at 25° C., and subsequently a mixture of substrate peptide and ATP was added with the final peptide and ATP concentrations at 13 μM and 25 μM, respectively. The final reaction mixture of enzyme-substrate-ATP-compound was incubated for 60 minutes at 25° C.
Afterwards ADP-Glo™ Reagent was added and the mixture was incubated at 25° C. for 60 minutes. Then Kinase Detection Reagent was added and the final mixture was incubated at 25° C. for 60 minutes. The luminescence signal of the final solution was measured on an Envision instrument (PerkinElmer). The percent (%) inhibition at each concentration of a compound is calculated relative to the luminescence signal in the Max and Min control wells contained within each assay plate. […] The concentrations and percent inhibition values for a test compound are plotted and the concentration of the compound required to achieve 50% inhibition (IC50) is determined with a four-parameter logistic dose response equation.
For orientation: ADP-Glo first removes unused ATP, then detects ADP through luciferase.

Assay [2] relates to Myocardial Infarction (left coronary artery ligation). Nature of the assay: In vivo test, myocardial infarction (heart infarct) model. On the set-up: species or system C57/BL6 mice. The protocol:
6-week-old C57/BL6 mice were anesthetized with 1% isoflurane in a chamber. The mice were placed in a left supine position on a heating pad (37° C.), and the heart was exposed via thoracotomy at the fourth left intercostal space. The pericardium was then opened, and the left coronary artery was permanently ligated with a 7-0 suture. Ligation was considered successful when the left ventricle became pale. From one week after surgery, the compound L41 or control solvent were injected via tail vein every other day. The mice were then euthanized after 6 weeks of injection, and the hearts were subjected to histology.
2. Injury Region Division
The cardiac tissue regions used for image characterization are described as the whole heart, infarct zone (left ventricle free wall), border zone (left ventricle anterior and posterior walls), or distal zone (interventricular septum).
For histology studies, hearts were collected at the indicated time points. […]
Hearts were sectioned at a thickness of 8 μm, and slides were created with 5 sections per slide. […] Scar size was quantified by examining serial sections from the apex to the ligation site and calculating the average percent fibrotic area of the total area using Image J software based on Masson's trichrome staining.

T1 sequence (P49841 whole entry): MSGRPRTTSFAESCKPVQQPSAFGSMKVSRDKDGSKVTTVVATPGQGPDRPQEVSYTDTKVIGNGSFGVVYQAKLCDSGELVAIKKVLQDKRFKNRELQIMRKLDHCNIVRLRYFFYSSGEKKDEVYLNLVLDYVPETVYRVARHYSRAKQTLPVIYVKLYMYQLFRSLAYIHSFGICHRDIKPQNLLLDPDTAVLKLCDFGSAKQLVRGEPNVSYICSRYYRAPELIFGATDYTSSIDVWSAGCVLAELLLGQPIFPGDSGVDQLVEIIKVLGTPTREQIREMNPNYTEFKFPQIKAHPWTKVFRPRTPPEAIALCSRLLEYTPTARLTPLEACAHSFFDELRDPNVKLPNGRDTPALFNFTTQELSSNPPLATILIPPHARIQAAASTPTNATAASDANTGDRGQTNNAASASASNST

As for `CN(C1=N/C(=C\c2ccc3c(c2)OCO3)C(=O)N1)c1ccccc1` [TJU-B115, (Z)-5-(benzo[d][1,3]dioxol-5-ylmethylene)-2-(methyl(phenyl)amino)-3,5-dihydro-4H-imidazol-4-one], in assay [1], the activation at 1 µM is less than 10%, the activation at 3 µM is more than 50% and the activation at 10 µM fell in the range of 10 to 50%. Moreover, the IC50 at human GSK3 beta (read-out: GSK3b IC50) is more than 10 µM.
Taken in the same sequence, the figures for `CN1C(=O)/C(=C/c2ccc3c(c2)OCO3)N=C1N(C)c1ccccc1` [TJU-B116, (Z)-5-(benzo[d][1,3]dioxol-5-ylmethylene)-3-methyl-2-(methyl(phenyl)amino)-3,5-dihydro-4H-imidazol-4-one] were less than 10%, less than 10%, less than 10% and more than 10 µM.
In the case of `O=C1NC(Nc2ccccc2)=N/C1=C\c1ccc2c(c1)OCO2` [Example L41, (Z)-5-(benzo[d][1,3]dioxol-5-ylmethylene)-2-(phenylamino)-3,5-dihydro-4H-imidazol-4-one], in assay [2] (mouse, in vivo), the “cardiomyocyte proliferation in the heart infarct model” value is “superior cardiomyocyte proliferation activity”. In addition, the “infarct size in the heart infarct model” value in assay [2] (tail vein injection every other day from one week after surgery, 6 weeks, FIG. 6 and 7) is on record as “reduction in infarct size”. Further, in assay [1], the activation at 1 µM was less than 10%, the activation at 3 µM was less than 10% and the activation at 10 µM was less than 10%. Moreover, the “myocyte growth / proliferation (EDU proliferation index), in words” value in assay [1] (neonatal rat cardiomyocytes, FIGS. 3-5) is on record as “potent agonist for promoting myocyte growth or proliferation; also recorded: promotes myocyte growth; also recorded: promotes proliferation of neonatal rat cardiomyocytes; also recorded: potent activity”.
In assay [1], `CCN(C1=N/C(=C\c2ccc3c(c2)OCO3)C(=O)N1)c1ccccc1` [TJU-B182, (Z)-5-(benzo[d][1,3]dioxol-5-ylmethylene)-2-(ethyl(phenyl)amino)-3,5-dihydro-4H-imidazol-4-one] registered an activation at 1 µM of 10 to 50%, an activation at 3 µM of 10 to 50% and an activation at 10 µM of 10 to 50%. For the same compound, at human GSK3 beta (read-out: GSK3b IC50), the IC50 was more than 10 µM.
For the compound `CC(=O)N(C1=N/C(=C\c2ccc3c(c2)OCO3)C(=O)N1)c1ccccc1` [TJU-B183, (Z)—N-(4-(benzo[d][1,3]dioxol-5-ylmethylene)-5-oxo-4,5-dihydro-1H-imidazol-2-yl)-N-phenylacetamide], in assay [1], the activation at 1 µM was less than 10%, the activation at 3 µM is 10 to 50% and the activation at 10 µM is more than 50%. The same compound returned an IC50 against human GSK3 beta of more than 10 µM.
In assay [1], `O=C1/C(=C/c2ccc3c(c2)OCO3)N=C(N(Cc2ccccc2)c2ccccc2)N1Cc1ccccc1` [TJU-B076, (Z)-5-(benzo[d][1,3]dioxol-5-ylmethylene)-3-benzyl-2-(benzyl(phenyl)amino)-3,5-dihydro-4H-imidazol-4-one] showed an activation at 1 µM of less than 10%, an activation at 3 µM of less than 10% and an activation at 10 µM of more than 50%. Moreover, the half-maximal inhibitory concentration (IC50) at human GSK3 beta (read-out: GSK3b IC50) was more than 10 µM.
In assay [1], `O=C1NC(Nc2ccccn2)=N/C1=C\c1ccc2c(c1)OCO2` [TJU-B097, (4Z)-4-[(2H-1,3-benzodioxol-5-yl)methylidene]-2-[(pyridin-2-yl)amino]-4,5-dihydro-1H-imidazol-5-one] gave an activation at 1 µM of less than 10%, an activation at 3 µM of less than 10% and an activation at 10 µM of less than 10%.
In assay [1], `CN1C(=O)/C(=C/c2cccc(Cl)c2)N=C1N` [TJU-B056, (4Z)-2-amino-4-[(3-chlorophenyl)methylidene]-1-methyl-4,5-dihydro-1H-imidazol-5-one] yielded an activation at 1 µM of less than 10%, an activation at 3 µM of less than 10% and an activation at 10 µM of less than 10%.
As to `O=C1NC(Nc2ccccc2)=N/C1=C\c1ccc2c(c1)OCO2` [TJU-B043, (4Z)-4-[(2H-1,3-benzodioxol-5-yl)methylidene]-2-(phenylamino)-4,5-dihydro-1H-imidazol-5-one], in assay [1], the activation at 1 µM was 10 to 50%, the activation at 3 µM is 10 to 50% and the activation at 10 µM is 10 to 50%.
Take `CN1C(=O)/C(=C/c2ccccc2F)N=C1N` [TJU-B067, (4Z)-2-amino-4-[(2-fluorophenyl)methylidene]-1-methyl-4,5-dihydro-1H-imidazol-5-one]: in assay [1], the activation at 1 µM is less than 10%, the activation at 3 µM was less than 10% and the activation at 10 µM was less than 10%.
